Like-named read-outs stand apart in the source and are kept apart here.
Key:
[1] = 100 mg of Fe2+ orally, healthy volunteers, Dresow et al., FIG. 5, cited from earlier work
[2] = system: Pig esophageal epithelium; experiment: in vitro permeation in the Franz cell (model of sublingual absorption); details: FIG. 2
Protocol: Sublingual absorption of Fe++ compounds was evaluated by means of in vitro permeation experiments using the Franz cell exemplified in FIG. 1. Pig esophageal epithelium was used as membrane. This experimental model is recognized as valid and reliable in the assessment of sublingual absorption of drugs [I. Diaz Del Consuelo, G. P. Pizzolato, F. Falsom, R. H. Guy, and Y. Jacques.: Evaluation of pig esophageal mucosa as a permeability barrier model for buccosal tissue. J. Pharm. […] Arch. […] Membrane preparation occurred by following the method described here. The esophagi were taken from the animals within one hour after sacrifice. The mucosa was separated from the muscle tissue with a lancet. To separate the epithelium, the mucosa was immersed in distilled water at 60° C. for 2 minutes and then the epithelium was removed from the underlying tissue with the aid of a spatula. The tissues thus prepared were stored at −20° C. until the time of use, when they were thawed to room temperature before being mounted on the vertical diffusion cells of the Franz type, a schematic view of which is shown in FIG. 1. The esophageal epithelium was placed on a regenerated cellulose filter (pore diameter 0.45 μm) with the luminal side facing up, and mounted between the donor and receptor compartments of the Franz cells. […] The exposed surface was 0.6 cm^2. The receptor compartment was filled with approximately 4 ml of physiological solution (0.9% NaCl w/v) and kept under constant magnetic agitation for the entire duration of the experiment. The entire system was thermostat-controlled at 37° C. Sampling of the receptor compartment was performed by drawing 200 μl of receptor solution, which were replaced immediately with an equal volume of fresh physiological solution. The samples were taken at preset time intervals, specifically at 0, 1, 2, 3, 4, 5 and 6 hours.
4 g of powder were suspended in 10 ml of physiological solution and left under agitation for 15 minutes, then the solution was filtered with regenerated cellulose filters (pore diameter 0.45 μm).
6 g of powder were suspended in 10 ml of physiological solution. The suspension was left under magnetic agitation for 25 minutes and then filtered with regenerated cellulose filters (pore diameter 0.45 μm).
7 g of powder were suspended in 6 ml of physiological solution. The suspension was left under magnetic agitation for 1 hour; at the end it was filtered with regenerated cellulose filters (pore diameter 0.45 μm).
An excess of ascorbic acid (2 g) was added to the solution. The suspension was left under magnetic agitation for 30 minutes and after filtration through regenerated cellulose filters (pore diameter 0.45 μm) was used as it was.
4 g of powder were suspended in 10 ml of physiological solution. The suspension was left under magnetic agitation for 15 hours, at the end of which it was filtered with regenerated cellulose filters (pore diameter 0.45 μm).
An excess of powder was suspended in 10 ml of physiological solution. The suspension was left under magnetic agitation for 15 hours, at the end of which it was filtered with regenerated cellulose filters (pore diameter 0.45 μm).

[3] = randomized clinical study, sublingual administration of 30 mg of Fe2+ to healthy volunteers; format: in vivo, human; details: for Serum Fe / Transferrin saturation / Total iron / NTBI (free non transferrin bound iron): 30 mg Fe2+ sublingual (6 sachets of example 6), fasting healthy volunteers n=2, average; for Total iron / NTBI (free non transferrin bound iron): ICP-MS; for NTBI (free non transferrin bound iron): ultrafiltration
Protocol: The participants were hospitalized for two days prior to administration until the next day and were under medical observation.
The samples were then analyzed with respect to the trend of (average) concentrations of various indicators over time.
Total iron measured in micrograms/dl (ICP-MS)
Free iron by ultrafiltration measured in micromoles/liter (=NTBI) (ICP-MS)
Total iron binding capacity (TIBC) measured in micrograms/dl (column separation, Vitros analyzer)
Transferrin saturation (PTS) measured in %
Serum iron (SI), measured in micrograms/dl, colorimetric method (Vitros analyzer)

## ferrous ascorbate [Fe++ ascorbate]
[1]; after 2 hours
  increase in transferrin saturation: approximately 45%
[1]; after two hours
  transferrin saturation (absolute): approximately 75%
[1]; at the time of administration
  Transferrin saturation: approximately 30%
[1]; within two hours, from 0
  free iron (NTBI): 6.7 µmol/L
[2]; 50 mg/ml solution, in the presence of ascorbic acid, pH 2.6, after 3 hours
  permeated divalent Fe: above 150 micrograms/square centimeter
[2]; 50 mg/ml solution, in the presence of ascorbic acid, pH 2.6, after 4 hours
  permeated divalent Fe: approximately 200 micrograms/square centimeter
[2]; 350 mg/ml solution, in the presence of ascorbic acid, pH 4.4, after 3 hours
  permeated divalent Fe: below 150 micrograms/square centimeter
[2]; 350 mg/ml solution, in the presence of ascorbic acid, pH 4.4, after 4 hours
  permeated divalent Fe: approximately 200 micrograms/square centimeter
[2]; 400 mg/ml solution, in the absence of ascorbic acid, pH 4.4, after 3 hours
  permeated divalent Fe: above 100 micrograms/square centimeter
[2]; 400 mg/ml solution, in the absence of ascorbic acid, pH 4.4, after 6 hours
  permeated divalent Fe: approximately 150 micrograms/square centimeter
[2]; 600 mg/ml solution, in the absence of ascorbic acid, pH 4.4, after 3 hours
  permeated divalent Fe: above 100 micrograms/square centimeter
[2]; 600 mg/ml solution, in the absence of ascorbic acid, pH 4.4, after 6 hours
  permeated divalent Fe: approximately 125 micrograms/square centimeter
[2]; 1000 mg/ml solution, in the absence of ascorbic acid, pH 4.4, after 3 hours
  permeated divalent Fe: approximately 50 micrograms/square centimeter
[2]; 1000 mg/ml solution, in the absence of ascorbic acid, pH 4.4, after 5 hours
  permeated divalent Fe: approximately 100 micrograms/square centimeter
[3]; time 0 h
  Serum Fe: 0 µg/dL
[3]; time 0 min (at administration)
  Transferrin saturation: ~24%
[3]; time 0.033 h
  Serum Fe: 5.5 µg/dL
[3]; time 2 min
  Transferrin saturation: 28%
  NTBI (free non transferrin bound iron): -0.306 µmol/L
[3]; time 0.100 h
  Serum Fe: 7 µg/dL
[3]; time 6 min
  Transferrin saturation: 28%
  NTBI (free non transferrin bound iron): -0.215 µmol/L
[3]; time 0.200 h
  Serum Fe: 6 µg/dL
[3]; time 12 min
  Transferrin saturation: 28.5%
  NTBI (free non transferrin bound iron): 0.029 µmol/L
[3]; time 0.330 h
  Serum Fe: 10 µg/dL
[3]; time 20 min
  Transferrin saturation: 26.5%
  NTBI (free non transferrin bound iron): 0.067 µmol/L
[3]; time 0.500 h
  Serum Fe: 24 µg/dL
[3]; time 30 min
  Transferrin saturation: 36%
  NTBI (free non transferrin bound iron): 0.106 µmol/L
[3]; time 0.750 h
  Serum Fe: 51.5 µg/dL
[3]; time 45 min
  Transferrin saturation: 40.5%
  NTBI (free non transferrin bound iron): 0.448 µmol/L
[3]; time 1.000 h
  Serum Fe: 72 µg/dL
[3]; time 60 min
  Transferrin saturation: 50%
  NTBI (free non transferrin bound iron): 0.311 µmol/L
[3]; time 1.250 h
  Serum Fe: 91 µg/dL
[3]; time 75 min
  Transferrin saturation: 51.5%
  NTBI (free non transferrin bound iron): 1.191 µmol/L
[3]; time 1.500 h
  Serum Fe: 110.5 µg/dL
[3]; time 90 min
  Transferrin saturation: 60%
  NTBI (free non transferrin bound iron): 0.084 µmol/L
[3]; time 1.750 h
  Serum Fe: 118.5 µg/dL
[3]; time 105 min
  Transferrin saturation: 49.5%
  NTBI (free non transferrin bound iron): 0.806 µmol/L
[3]; time 2.000 h
  Serum Fe: 129 µg/dL
[3]; time 120 min (2 hours), listed as Fe2+ (as ascorbate)
  Transferrin saturation: 65.5%
[3]; time 120 min (2 hours), listed as Fe2+ Ascorbate
  Transferrin saturation: 66.5%
[3]; 30 mg of Fe2+ sublingual, healthy volunteers, after 2 hours versus time of administration
  increase in transferrin saturation (PTS): 42.5%
[3]; 30 mg of Fe2+ sublingual, healthy volunteers, after 2 hours, from 0
  free iron (NTBI): 0.34 µmol/L
[3]; time 0.00 h
  Total iron: 0 µg/dL
[3]; time 0.03 h
  Total iron: -7.4 µg/dL
[3]; time 0.10 h
  Total iron: 6.2 µg/dL
[3]; time 0.20 h
  Total iron: -13.54 µg/dL
[3]; time 0.33 h
  Total iron: 5.95 µg/dL
[3]; time 0.50 h
  Total iron: 6.37 µg/dL
[3]; time 0.75 h
  Total iron: 41.58 µg/dL
[3]; time 1.00 h
  Total iron: 51.01 µg/dL
[3]; time 1.25 h
  Total iron: 80.17 µg/dL
[3]; time 1.50 h
  Total iron: 90.15 µg/dL
[3]; time 1.75 h
  Total iron: 95.7 µg/dL
[3]; time 2.00 h
  Total iron: 110.94 µg/dL
[3]; time 0 min
  NTBI (free non transferrin bound iron): 0.000 µmol/L
[3]; time 120 min
  NTBI (free non transferrin bound iron): 0.339 µmol/L

Reference: patent publication US10543216B2, “Modus of administration of iron, and new formulations adapted for the said goal” (BIOFER S.P.A., priority 2013, dated 2020)
